Measurements reported in patent publication US9328075B2 (St. Jude Children's Research Hospital, priority 2011, dated 2016).

Experiments:
[1] = target: IRdRp (PB2, PB1, PA and NP from the strain A/Vietnam/1203/04 (H1N1)) (Influenza A virus, UniProt Q5EP34); assay: cell-based; parameters: species or system influenza A/Vietnam/1203/04 (H1N1)
in vitro [2] = conditions: human
in vitro [3] = conditions: dog
[4] = tested on: A/Puerto Rico/8/34 (H1N1); assay: microbe, parasite or virus in culture; conditions: Influenza A virus, H1N1, MDCK, 48 h, read-out: Growth Inhibition (%) 20 μM 48 h

SMILES | IC50 [1] [µM] | CC50 at 72 h (in vitro [2]) [µM] | CC50 at 72 h (in vitro [3]) [µM] | inhibition at 20 µM [4] [%]
Cc1cccc(NC(=O)c2nc(-c3ccccn3)nc(O)c2O)c1 | 27.1 | < 25 | > 25 | 75
O=C(NCc1cccc2ccccc12)c1nc(-c2ccccn2)[nH]c(=O)c1O | 9.1 | < 25 | > 25 | 94
CC(C)CC(C)NC(=O)c1nc(-c2ccccn2)nc(O)c1O (stereo not shown) | 12.9 | > 25 | > 25 | 50
CCCCC(CC)CNC(=O)c1nc(-c2ccccn2)nc(O)c1O (stereo not shown) | 4.3 | < 25 | > 25 | 94
CC(C)(C)CCNC(=O)c1nc(-c2ccccn2)nc(O)c1O | 10.1 | < 25 | > 25 | 88
Cc1ccccc1NC(=O)c1nc(-c2ccccn2)nc(O)c1O | 8.9 | > 25 | > 25 | 94
COc1ccc(NC(=O)c2nc(-c3ccccn3)nc(O)c2O)c(C)c1 | 10 | < 25 | > 25 | 0
O=C(NC1CCCc2ccccc21)c1nc(-c2ccccn2)[nH]c(=O)c1O (stereo not shown) | 3.6 | 2.6 | 7 | 97
CC1CCC(NC(=O)c2nc(-c3ccccn3)[nH]c(=O)c2O)CC1 (stereo not shown) | 5.6 | < 25 | > 25 | 88
CC1CCCCC1NC(=O)c1nc(-c2ccccn2)nc(O)c1O (stereo not shown) | 5.5 | < 25 | 5.5 | 97
CC(C)(C)c1cccc(NC(=O)c2nc(-c3ccccn3)nc(O)c2O)c1 | 5.9 | < 25 | > 25 | 94
CC(CNC(=O)c1nc(-c2ccccn2)nc(O)c1O)c1ccccc1 (stereo not shown) | 20.5 | < 25 | > 25 | 50
CCCCCC(C)NC(=O)c1nc(-c2ccccn2)nc(O)c1O (stereo not shown) | 14.1 | < 25 | > 25 | 88
